How the values were obtained:
A549 = experiment: Antiproliferative activity against human A549 cells assessed as reduction in cell viability incubated for 72 hr by MTT assay; details: A549, 72 h
KARPAS-299 = experiment: Antiproliferative activity against human Karpas299 cells assessed as reduction in cell viability incubated for 72 hrs by MTT assay; details: KARPAS-299, 72 h
NCI-H2228 = experiment: Antiproliferative activity against human H2228 cells assessed as reduction in cell viability incubated for 72 hrs by MTT assay; format: functional, cell-based; details: NCI-H2228, 72 h
[1] = biological target: ALK tyrosine kinase receptor (Homo sapiens, UniProt Q9UM73); experiment: Inhibition of wild-type ALK (unknown origin) incubated for 1 hr
Chain of ALK tyrosine kinase receptor (Homo sapiens, UniProt Q9UM73) (Q9UM73 whole entry): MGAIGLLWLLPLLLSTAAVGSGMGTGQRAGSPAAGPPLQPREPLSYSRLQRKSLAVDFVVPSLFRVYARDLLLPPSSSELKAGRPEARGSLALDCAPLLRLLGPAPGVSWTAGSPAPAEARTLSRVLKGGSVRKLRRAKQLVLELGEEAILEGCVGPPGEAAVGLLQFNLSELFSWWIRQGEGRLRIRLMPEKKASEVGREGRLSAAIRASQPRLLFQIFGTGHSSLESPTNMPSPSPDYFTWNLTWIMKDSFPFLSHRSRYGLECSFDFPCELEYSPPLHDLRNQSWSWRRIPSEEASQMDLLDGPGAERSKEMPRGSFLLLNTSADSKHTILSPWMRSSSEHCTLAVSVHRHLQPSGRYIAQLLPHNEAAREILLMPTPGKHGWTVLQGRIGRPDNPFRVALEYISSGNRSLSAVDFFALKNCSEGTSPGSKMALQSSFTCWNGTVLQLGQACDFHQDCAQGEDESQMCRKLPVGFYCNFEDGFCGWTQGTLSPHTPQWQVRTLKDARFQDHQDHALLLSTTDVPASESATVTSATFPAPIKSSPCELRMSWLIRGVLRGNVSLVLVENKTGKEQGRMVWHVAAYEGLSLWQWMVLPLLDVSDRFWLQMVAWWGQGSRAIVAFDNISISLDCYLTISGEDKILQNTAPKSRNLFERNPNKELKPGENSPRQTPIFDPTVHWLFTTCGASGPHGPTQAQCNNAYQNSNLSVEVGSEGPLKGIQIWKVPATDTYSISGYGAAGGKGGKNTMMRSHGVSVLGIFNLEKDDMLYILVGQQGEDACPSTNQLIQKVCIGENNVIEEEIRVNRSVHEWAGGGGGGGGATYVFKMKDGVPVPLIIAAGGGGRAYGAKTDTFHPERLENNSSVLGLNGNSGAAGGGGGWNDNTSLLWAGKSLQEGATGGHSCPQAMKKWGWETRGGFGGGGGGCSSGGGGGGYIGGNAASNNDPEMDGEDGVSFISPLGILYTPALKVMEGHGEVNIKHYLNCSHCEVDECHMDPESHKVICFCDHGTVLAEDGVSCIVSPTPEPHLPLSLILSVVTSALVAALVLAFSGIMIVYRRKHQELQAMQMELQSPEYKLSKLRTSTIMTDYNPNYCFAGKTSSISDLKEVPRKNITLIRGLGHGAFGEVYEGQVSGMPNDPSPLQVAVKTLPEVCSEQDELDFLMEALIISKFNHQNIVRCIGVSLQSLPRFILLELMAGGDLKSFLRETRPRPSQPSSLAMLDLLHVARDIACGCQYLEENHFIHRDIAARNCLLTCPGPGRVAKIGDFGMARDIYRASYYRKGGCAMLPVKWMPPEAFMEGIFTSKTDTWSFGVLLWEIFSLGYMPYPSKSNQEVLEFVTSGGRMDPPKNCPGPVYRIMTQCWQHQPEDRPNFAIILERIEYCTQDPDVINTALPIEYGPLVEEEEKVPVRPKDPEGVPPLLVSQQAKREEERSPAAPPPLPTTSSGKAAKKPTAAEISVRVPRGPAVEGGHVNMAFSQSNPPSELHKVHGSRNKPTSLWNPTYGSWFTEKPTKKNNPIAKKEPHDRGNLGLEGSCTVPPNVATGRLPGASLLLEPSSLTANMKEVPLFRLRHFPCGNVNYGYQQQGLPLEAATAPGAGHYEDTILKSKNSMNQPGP

[2] = biological target: ALK tyrosine kinase receptor (Homo sapiens, UniProt Q9UM73, L1196M); experiment: Inhibition of ALK L1196M (unknown origin) incubated for 1 hr
Chain of ALK tyrosine kinase receptor (Homo sapiens, UniProt Q9UM73, L1196M) (Q9UM73 19-1620 L1196M limits assumed): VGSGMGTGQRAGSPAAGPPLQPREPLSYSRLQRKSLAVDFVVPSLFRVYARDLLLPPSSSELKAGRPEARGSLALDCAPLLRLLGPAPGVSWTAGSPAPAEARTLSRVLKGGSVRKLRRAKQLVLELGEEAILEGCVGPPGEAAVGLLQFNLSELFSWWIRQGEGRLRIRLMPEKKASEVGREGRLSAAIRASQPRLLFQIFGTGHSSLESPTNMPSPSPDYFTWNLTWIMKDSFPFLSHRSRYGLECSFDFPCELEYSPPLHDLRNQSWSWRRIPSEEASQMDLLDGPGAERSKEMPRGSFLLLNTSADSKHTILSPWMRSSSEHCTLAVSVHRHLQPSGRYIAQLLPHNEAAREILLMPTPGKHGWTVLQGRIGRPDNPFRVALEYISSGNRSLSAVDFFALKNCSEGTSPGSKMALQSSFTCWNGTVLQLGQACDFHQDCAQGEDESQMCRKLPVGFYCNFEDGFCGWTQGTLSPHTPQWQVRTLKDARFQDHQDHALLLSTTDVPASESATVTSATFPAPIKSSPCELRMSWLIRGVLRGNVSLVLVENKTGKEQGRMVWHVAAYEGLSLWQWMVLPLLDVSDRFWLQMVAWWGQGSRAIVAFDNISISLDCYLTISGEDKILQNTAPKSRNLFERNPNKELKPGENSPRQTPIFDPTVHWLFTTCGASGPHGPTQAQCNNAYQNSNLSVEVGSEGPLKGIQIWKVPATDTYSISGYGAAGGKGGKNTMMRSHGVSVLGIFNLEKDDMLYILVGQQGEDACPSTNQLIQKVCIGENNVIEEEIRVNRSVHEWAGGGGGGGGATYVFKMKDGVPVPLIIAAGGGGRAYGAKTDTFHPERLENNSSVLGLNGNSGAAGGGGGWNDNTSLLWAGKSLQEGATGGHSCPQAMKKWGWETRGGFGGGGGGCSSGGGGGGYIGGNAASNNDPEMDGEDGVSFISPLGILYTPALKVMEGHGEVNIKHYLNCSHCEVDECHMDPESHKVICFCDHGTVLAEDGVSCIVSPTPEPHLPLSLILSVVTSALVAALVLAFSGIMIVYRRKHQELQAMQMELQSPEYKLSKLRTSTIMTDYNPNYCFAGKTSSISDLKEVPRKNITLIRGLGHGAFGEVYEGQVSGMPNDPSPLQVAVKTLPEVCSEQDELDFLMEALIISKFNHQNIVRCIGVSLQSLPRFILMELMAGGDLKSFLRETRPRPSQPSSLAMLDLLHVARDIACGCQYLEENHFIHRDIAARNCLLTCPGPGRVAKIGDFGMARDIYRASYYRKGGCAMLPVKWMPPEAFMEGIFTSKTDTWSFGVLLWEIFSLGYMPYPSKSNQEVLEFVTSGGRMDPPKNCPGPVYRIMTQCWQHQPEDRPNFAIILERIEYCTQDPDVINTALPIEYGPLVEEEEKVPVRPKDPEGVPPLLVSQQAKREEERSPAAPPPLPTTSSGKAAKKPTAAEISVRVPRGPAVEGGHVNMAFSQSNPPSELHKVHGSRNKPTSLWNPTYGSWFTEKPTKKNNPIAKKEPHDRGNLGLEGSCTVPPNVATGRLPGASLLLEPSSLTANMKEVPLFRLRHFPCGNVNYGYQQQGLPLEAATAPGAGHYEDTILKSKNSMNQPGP

Structure (SMILES) | IC50 (A549) [µM] | IC50 (KARPAS-299) [µM] | IC50 (NCI-H2228) [µM] | IC50 [1] [µM] | IC50 [2] [µM]
CNC(=O)c1ccccc1Nc1nc(Nc2ccc(-n3cccc3C(=O)N3CCN(C)CC3)cc2OC)ncc1Cl | > 10 | 0.09 | 0.98 |  | 
COc1cc(-n2cccc2C(=O)NCCO)ccc1Nc1ncc(Cl)c(Nc2ccccc2NS(C)(=O)=O)n1 | > 10 | 0.045 | 0.034 | 0.0019 | 0.0031
COc1cc(-n2cccc2C(=O)N2CCCCC2)ccc1Nc1ncc(Cl)c(Nc2ccccc2NS(C)(=O)=O)n1 | > 10 | 1.04 | 0.63 |  | 
COc1cc(-n2cccc2C(=O)N2CCC(C)CC2)ccc1Nc1ncc(Cl)c(Nc2ccccc2NS(C)(=O)=O)n1 | 2.2 | 1.37 | 1.05 |  | 
COc1cc(-n2cccc2C(=O)N2CCSCC2)ccc1Nc1ncc(Cl)c(Nc2ccccc2NS(C)(=O)=O)n1 | 1.47 | 0.93 | 0.7 | 0.0045 | 0.0083
Cc1cc(Nc2ncc(Cl)c(Nc3ccccc3S(=O)(=O)C(C)C)n2)c(OC(C)C)cc1C1CCNCC1 [CERITINIB] |  |  | 1.07 |  | 
COc1cc(-n2cccc2C(=O)N2CC(O)C2)ccc1Nc1ncc(Cl)c(Nc2ccccc2NS(C)(=O)=O)n1 | 2.08 | 0.081 | 0.044 |  | 
COc1cc(-n2cccc2C(=O)N2CCN(C)CC2)ccc1Nc1ncc(Cl)c(Nc2ccccc2NS(C)(=O)=O)n1 | > 10 | 0.97 | 1.05 |  | 
CNC(=O)c1ccccc1Nc1nc(Nc2ccc(-n3cccc3C(=O)NCCO)cc2OC)ncc1Cl | > 10 | 0.79 | 0.043 | 0.0096 | 0.0134
CCN1CCN(C(=O)c2cccn2-c2ccc(Nc3ncc(Cl)c(Nc4ccccc4NS(C)(=O)=O)n3)c(OC)c2)CC1 | > 10 | 1.41 | 1.13 | 0.0085 | 0.0117
CNC(=O)c1ccccc1Nc1nc(Nc2ccc(-n3cccc3C(=O)N3CC(O)C3)cc2OC)ncc1Cl | 4.13 | 0.74 | 0.044 |  | 
CNC(=O)c1ccccc1Nc1nc(Nc2ccc(-n3cccc3C(=O)N3CCC(O)CC3)cc2OC)ncc1Cl | > 10 | 0.97 | 1.07 |  | 
COC(=O)c1cccn1-c1ccc(Nc2ncc(Cl)c(Nc3ccccc3NS(C)(=O)=O)n2)c(OC)c1 | 2.51 | 0.79 | 0.95 |  | 
CNC(=O)c1ccccc1Nc1nc(Nc2ccc(-n3cccc3C(=O)N3CCN(CCO)CC3)cc2OC)ncc1Cl | > 10 | 0.43 | 1.41 |  | 
CNC(=O)c1ccccc1Nc1nc(Nc2ccc(-n3cccc3C(=O)O)cc2OC)ncc1Cl | 2.49 | 0.17 | 0.087 |  | 
COc1cc(-n2cccc2C(=O)N(C)C)ccc1Nc1ncc(Cl)c(Nc2ccccc2NS(C)(=O)=O)n1 | > 10 | 0.078 | 0.054 |  | 

Structure (SMILES) | IC50 (A549) [µM] | IC50 (KARPAS-299) [µM] | IC50 (NCI-H2228) [µM] | IC50 [1] [µM] | IC50 [2] [µM]
COc1cc(-n2cccc2C(=O)N2CCOCC2)ccc1Nc1ncc(Cl)c(Nc2ccccc2NS(C)(=O)=O)n1 | 1.77 | 0.64 | 0.61 |  | 
CNC(=O)c1ccccc1Nc1nc(Nc2ccc(-n3cccc3C(=O)N3CCCC3)cc2OC)ncc1Cl | > 10 | 0.84 | 0.77 |  | 
CNC(=O)c1ccccc1Nc1nc(Nc2ccc(-n3cccc3C(=O)OC)cc2OC)ncc1Cl | 8.51 | 0.89 | 0.97 |  | 
CNC(=O)c1ccccc1Nc1nc(Nc2ccc(-n3cccc3C(=O)N3CCSCC3)cc2OC)ncc1Cl | 2.18 | 1.14 | 1.04 |  | 
CCN1CCN(C(=O)c2cccn2-c2ccc(Nc3ncc(Cl)c(Nc4ccccc4C(=O)NC)n3)c(OC)c2)CC1 | 1.57 | 0.94 | 1.27 |  | 
COc1cc(-n2cccc2C(=O)N2CCC(O)CC2)ccc1Nc1ncc(Cl)c(Nc2ccccc2NS(C)(=O)=O)n1 | > 10 | 0.97 | 0.66 |  | 
CNC(=O)c1ccccc1Nc1nc(Nc2ccc(-n3cccc3C(=O)N3CCC(C)CC3)cc2OC)ncc1Cl | > 10 | 2.31 | 1.07 |  | 
CCN(CC)C(=O)c1cccn1-c1ccc(Nc2ncc(Cl)c(Nc3ccccc3NS(C)(=O)=O)n2)c(OC)c1 | 0.97 | 0.105 | 0.087 |  | 
CNC(=O)c1ccccc1Nc1nc(Nc2ccc(-n3cccc3C(=O)N(C)C)cc2OC)ncc1Cl | 4.12 | 1.07 | 0.089 |  | 
COc1cc(-n2cccc2C(=O)N2CCCC2)ccc1Nc1ncc(Cl)c(Nc2ccccc2NS(C)(=O)=O)n1 | 4.58 | 0.87 | 0.6 |  | 
COc1cc(-n2cccc2C(=O)O)ccc1Nc1ncc(Cl)c(Nc2ccccc2NS(C)(=O)=O)n1 | 1.06 | 0.072 | 0.064 |  | 
COc1cc(-n2cccc2C(=O)N2CCN(CCO)CC2)ccc1Nc1ncc(Cl)c(Nc2ccccc2NS(C)(=O)=O)n1 | > 10 | 1.25 | 1.08 |  | 
CCN(CC)C(=O)c1cccn1-c1ccc(Nc2ncc(Cl)c(Nc3ccccc3C(=O)NC)n2)c(OC)c1 | 3.49 | 0.27 | 0.54 |  | 
CNC(=O)c1ccccc1Nc1nc(Nc2ccc(-n3cccc3C(=O)N3CCOCC3)cc2OC)ncc1Cl | 2.21 | 1.03 | 0.84 |  | 
CNC(=O)c1ccccc1Nc1nc(Nc2ccc(-n3cccc3C(=O)N3CCCCC3)cc2OC)ncc1Cl | > 10 | 1.61 | 0.99 |  | 
